This note sets out measurements from BindingDB's records for patent US20250313563 (The Broad Institute, 2025).

pIC50: −log10 of the molar value. Several values for one entry are separate records, joined by “and”; a condition that tells them apart may be missing. Equal entries are not always repeated.

In test [1] the target is Glycogen synthase kinase-3 alpha (Homo sapiens, UniProt P49840). Put plainly: TR-FRET Assay. An outline of the steps: (§1)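 Signal is measured as TR-FRET between a terbium anti-phospho-Ser641 antibody and streptavidin-d2, added after an EDTA quench. Compounds are preincubated 30 min in assay buffer.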
For orientation: Time-resolved FRET reads energy transfer from a long-lived donor to a nearby acceptor.

The target of test [2] is Glycogen synthase kinase-3 beta (Homo sapiens, UniProt P49841). Put plainly: TR-FRET Assay. In a few lines:
as §1

Chain of Glycogen synthase kinase-3 alpha (P49840 whole entry): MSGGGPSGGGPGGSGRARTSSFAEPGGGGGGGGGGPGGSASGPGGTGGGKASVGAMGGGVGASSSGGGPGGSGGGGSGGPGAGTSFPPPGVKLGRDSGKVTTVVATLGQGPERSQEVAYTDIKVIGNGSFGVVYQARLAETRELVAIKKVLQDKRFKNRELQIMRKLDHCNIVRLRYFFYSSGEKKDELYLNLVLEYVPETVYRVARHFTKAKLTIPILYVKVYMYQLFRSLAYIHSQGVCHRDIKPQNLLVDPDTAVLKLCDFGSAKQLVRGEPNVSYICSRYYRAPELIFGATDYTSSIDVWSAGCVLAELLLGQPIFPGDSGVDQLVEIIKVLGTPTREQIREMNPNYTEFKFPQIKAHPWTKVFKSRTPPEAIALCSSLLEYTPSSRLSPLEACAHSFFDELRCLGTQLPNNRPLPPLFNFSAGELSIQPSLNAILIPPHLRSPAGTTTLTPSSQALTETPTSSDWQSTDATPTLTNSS
Chain of Glycogen synthase kinase-3 beta (P49841 whole entry): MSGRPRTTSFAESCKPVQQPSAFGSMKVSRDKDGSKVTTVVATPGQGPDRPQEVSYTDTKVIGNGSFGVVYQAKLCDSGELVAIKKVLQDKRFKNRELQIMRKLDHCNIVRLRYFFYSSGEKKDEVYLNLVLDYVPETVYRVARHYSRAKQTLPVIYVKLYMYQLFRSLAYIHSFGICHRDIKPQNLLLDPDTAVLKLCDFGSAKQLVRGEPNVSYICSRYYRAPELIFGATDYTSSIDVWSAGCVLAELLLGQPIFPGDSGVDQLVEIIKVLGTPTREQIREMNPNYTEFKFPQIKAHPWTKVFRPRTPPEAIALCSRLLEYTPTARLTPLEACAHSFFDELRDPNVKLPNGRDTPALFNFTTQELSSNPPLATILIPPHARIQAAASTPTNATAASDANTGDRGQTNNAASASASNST

By pIC50 is commonly meant the IC50 on a negative log10 scale, so that one unit is a factor of ten. A low value points to a high IC50. With `CCC1(c2cccc(-c3ccnc(OC)n3)c2)C2=CN=NC2NC2=C1C(=O)CC(C)(C)C2` (configuration not stated) [US20250313563, Compound 948092], the pIC50 in test [1] and in test [2] was more than 7.00 each time.
`CC[C@]1(c2cccc(-c3cnc(C)n3C)c2)C2=CN=NC2NC2=C1C(=O)CC(C)(C)C2` (some centres not stated) [US20250313563, Compound 945613]: the pIC50 in test [1] is > 7.00 and 6.00 to 7.00; in test [2] it was > 7.00 and 5.30 to 6.00.
Regarding `CC[C@]1(c2cccc(-c3cnn4c3CCCC4)c2)C2=C(CC(C)(C)NC2=O)NC2N=NC(C(F)(F)F)=C21` (some centres not stated) [US20250313563, Compound 948772], the pIC50 in test [1] and in test [2] was 6.00 to 7.00 each time.
As for `CC1(C)CC(=O)C2=C(C1)NC1=C(CN=N1)[C@@]21CCOC1` [US20250313563, Compound 877314], the pIC50 in test [1] is 6.00 to 7.00; in test [2] it was 5.30 to 6.00.
For the molecule `CC[C@@]1(c2cccc(-c3cnn(C)c3)c2)C2=C(CC(C)(C)CC2=O)NC2N=NC(C(F)(F)F)=C21` (some centres not stated) [US20250313563, Compound 811567], the negative-log IC50 (pIC50) in test [1] and in test [2] was 6.00 to 7.00 each time.
In the case of `CCC1(c2cccc(-c3ccnc(C(C)(C)C)c3)c2)C2=CN=NC2NC2=C1C(=O)CC(C)(C)C2` (configuration not stated) [US20250313563, Compound 947490], the results for the pIC50 in test [1] and in test [2] were 6.00 to 7.00 and 5.30 to 6.00, respectively.
Turning to `CC[C@@]1(c2cccc(-c3ccnn3C)c2)C2=CN=NC2NC2=C1C(=O)CC(C)(C)[C@H]2F` (some centres not stated) [US20250313563, Compound 957508], the pIC50 in test [1] and in test [2] was less than 5.30 throughout.
In the case of `CCC1(c2cccc(-c3ccnc4c3CCC4)c2)C2=C(N=NC2)NC2=C1C(=O)C(C)(C)C2` (configuration not stated) [US20250313563, Compound 952557], the results for the pIC50 in test [1] and in test [2] were more than 7.00 and 6.00 to 7.00, respectively.
As for `CC[C@@]1(c2ccccc2)C2=CN=NC2NC2=C1C(=O)[C@H](C)C[C@H]2C` (some centres not stated) [US20250313563, Compound 865201], the pIC50 was more than 7.00 in test [1] and 6.00 to 7.00 in test [2].
The corresponding values for `Cc1noc(C2CCC3(CC2)C2=C(N=NC2)NC2=C3C(=O)CC(C)(C)C2)n1` (configuration not stated) [US20250313563, Compound 943895] are 6.00 to 7.00 and 6.00 to 7.00.
On to `CC[C@@]1(c2cccc(-c3cnn(-c4cccnc4)c3)c2)C2=CN=NC2NC2=C1C(=O)NC(C)(C)C2` (some centres not stated) [US20250313563, Compound 952024], for which the negative-log IC50 (pIC50) in test [1] is 6.00 to 7.00; in test [2], less than 5.30.
Take `CC[C@]1(c2cccc(-c3c(C)nnn3C)c2)C2=CN=NC2NC2=C1C(=O)CC(C)(C)C2` (some centres not stated) [US20250313563, Compound 946099]: the pIC50 is more than 7.00 in test [1]; > 7.00 and 6.00 to 7.00 in test [2].
As to `CC[C@@]1(c2cccc(C3=CNN4CC=CN=C34)c2)C2=CN=NC2NC2=C1C(=O)NC(C)(C)C2` (some centres not stated) [US20250313563, Compound 950830], the pIC50 in test [1] is more than 7.00; in test [2], 6.00 to 7.00.
The matching figures for `CCc1cc(N(C)c2cccc(C3(CC)C4=CN=NC4NC4=C3C(=O)CC(C)(C)C4)c2)ccn1` (configuration not stated) [US20250313563, Compound 917147]: more than 7.00 and 6.00 to 7.00.
On to `CC1(C)CC(=O)C2=C(C1)NC1=C(CN=N1)C21CCN(S(=O)(=O)c2cnn(CC(F)(F)F)c2)CC1` [US20250313563, Compound 948123], for which the negative-log IC50 (pIC50) in test [1] is > 7.00 and 6.00 to 7.00; in test [2], > 7.00 and 6.00 to 7.00.
As to `CCC1(c2cccc(-c3ccnc4c3CCCC4)c2)C2=CN=NC2NC2=C1C(=O)CC(C)(C)C2` (configuration not stated) [US20250313563, Compound 932625], the pIC50 in test [1] and in test [2] was more than 7.00 throughout.
For the molecule `CC1(C)CC(=O)C2=C(C1)NC1=C(CN=N1)C21CCN(S(=O)(=O)c2cccnc2)CC1` [US20250313563, Compound 947613], the pIC50 is > 7.00 and 6.00 to 7.00 in test [1]; > 7.00 and 5.30 to 6.00 in test [2].
As for `CC[C@]1(c2cccc(C)c2)C2=CN=NC2NC2=C1C(=O)CC(C)(C)C2` (some centres not stated) [US20250313563, Compound 789560], the pIC50 in test [1] is > 7.00 and 5.30 to 6.00; in test [2], 6.00 to 7.00.
As to `CC[C@]1(c2cccc(-c3ccnn3C3CC3(F)F)c2)C2=CN=NC2NC2=C1C(=O)NC(C)(C)C2` (some centres not stated) [US20250313563, Compound 949518], the values for the pIC50 in test [1] and in test [2] were 6.00 to 7.00 and less than 5.30, respectively.
On to `CC[C@@]1(c2cccc(-c3ccnc(C(F)F)c3)c2)C2=CN=NC2NC2=C1C(=O)CC(C)(C)C2` (some centres not stated) [US20250313563, Compound 943919], for which the pIC50 in test [1] is more than 7.00; in test [2], 6.00 to 7.00.
For `CC[C@]1(c2cccc(-c3c(C)cncc3C)c2)C2=CN=NC2NC2=C1C(=O)NC(C)(C)C2` (some centres not stated) [US20250313563, Compound 948829], the pIC50 in test [1] and in test [2] was less than 5.30 throughout.
Consider `CC[C@]1(c2cccc(-c3ccnn3C)c2)C2=C(CC(C)(C)CC2=O)NC2N=NC(C)=C21` (some centres not stated) [US20250313563, Compound 913046], for which the pIC50 was 5.30 to 6.00 and < 5.30 in test [1]; less than 5.30 in test [2].
`CCn1nccc1-c1cccc(C2(CC)C3=CN=NC3NC3=C2C(=O)CC(C)(C)C3)c1` (configuration not stated) [US20250313563, Compound 929398]: the pIC50 in test [1] and in test [2] was more than 7.00 each time.
Consider `CC[C@]1(c2cccc(-c3ccnc(C)c3)c2)C2=C(CC(C)(C)NC2=O)NC2N=NC(C(F)F)=C21` (some centres not stated) [US20250313563, Compound 950162], for which the pIC50 in test [1] and in test [2] was 6.00 to 7.00 throughout.
`C[C@H]1C[C@@]2(CCO1)C1=C(N=NC1)NC1=C2C(=O)CC(C)(C)C1` [US20250313563, Compound 924307]: the pIC50 in test [1] and in test [2] was 6.00 to 7.00 in each case.
`CC[C@]1(c2ccccc2)C2=C(N=NC2)NC2=C1C(=O)[C@H]1CC[C@@H]2C1` [US20250313563, Compound 791268]: the pIC50 in test [1] and in test [2] was less than 5.30 throughout.
As to `CC1(C)CC(=O)C2=C(C1)NC1=C(CN=N1)C21CN(CCc2ccccc2)C1` [US20250313563, Compound 929441], the pIC50 in test [1] and in test [2] was less than 5.30 throughout.
As to `CC[C@@]1(c2cccc(-c3cnn(C)c3)c2)C2=C(CC(C)(C)NC2=O)NC2N=NC(C)=C21` (some centres not stated) [US20250313563, Compound 945614], the pIC50 in test [1] is 6.00 to 7.00; in test [2] it was 6.00 to 7.00 and 5.30 to 6.00.
Take `CCC1(CC)C2=C(CC(C)(C)CC2=O)NC2=C1C(C)N=N2` (configuration not stated) [US20250313563, Compound 786061]: the negative-log IC50 (pIC50) in test [1] is 6.00 to 7.00; in test [2], less than 5.78.
Consider `CCC1(c2cccc(-c3ccnc(C)c3C)c2)C2=C(CC(C)(C)NC2=O)NC2N=NC(C)=C21` (configuration not stated) [US20250313563, Compound 947399], for which the pIC50 in test [1] is 6.00 to 7.00; in test [2], 5.30 to 6.00.
As to `CC[C@]1(c2cccc(-c3cn(C)nc3C)c2)C2=C(CC(C)(C)NC2=O)NC2N=NC(C(F)(F)F)=C21` (some centres not stated) [US20250313563, Compound 948309], the pIC50 in test [1] is 5.30 to 6.00; in test [2] it was less than 5.30.
The corresponding values for `CCC1(c2cccc(N(C)c3ncccn3)c2)C2=C(CC(C)(C)NC2=O)NC2N=NC(Cl)=C21` (configuration not stated) [US20250313563, Compound 949417] are more than 7.00 and more than 7.00.
`CCC1(c2cccc(N3CCOc4ncccc43)c2)C2=CN=NC2NC2=C1C(=O)CC(C)(C)C2` (configuration not stated) [US20250313563, Compound 918279]: the pIC50 in test [1] and in test [2] was more than 7.00 throughout.
Consider `CCC1(c2cccc(C(F)(F)C(F)(F)F)c2)C2=CN=NC2NC2=C1C(=O)CC(C)(C)C2` (configuration not stated) [US20250313563, Compound 948615], for which the negative logarithm of the IC50 (pIC50) in test [1] and in test [2] was more than 7.00 each time.
Turning to `CC1(C)CC(=O)C2=C(C1)NC1N=NC(C3(C(F)(F)F)CC3)=C1C21CCc2c(F)cccc21` (configuration not stated) [US20250313563, Compound 810591], the pIC50 in test [1] and in test [2] was 6.00 to 7.00 in each case.
Take `CC[C@@]1(c2cccc(-c3cnn4c3CCCC4)c2)C2=C(CC(C)(C)NC2=O)NC2N=NC(C(F)(F)F)=C21` (some centres not stated) [US20250313563, Compound 948775]: the pIC50 in test [1] is more than 7.00; in test [2], > 7.00 and 6.00 to 7.00.
In the case of `CC[C@]1(c2cccc(Cc3ncccc3C(F)(F)F)c2)C2=CN=NC2NC2=C1C(=O)CC(C)(C)C2` (some centres not stated) [US20250313563, Compound 947664], the pIC50 in test [1] was more than 7.00; in test [2], 6.00 to 7.00.
The corresponding values for `CC1(C)CC(=O)C2=C(C1)NC1=C(CN=N1)C21COCCOC1` [US20250313563, Compound 912094] are 5.30 to 6.00 and less than 5.30.
With `CC[C@@]1(c2cccc(N3CCC3)c2)C2=CN=NC2NC2=C1C(=O)CC(C)(C)C2` (some centres not stated) [US20250313563, Compound 889632], the negative logarithm of the IC50 (pIC50) in test [1] and in test [2] was less than 5.30 in each case.
`CCC1(c2cccc(-c3cnn(C)c3)c2)C2=C(CC(C)(C)NC2=O)NC2N=NC(Cl)=C21` (configuration not stated) [US20250313563, Compound 948767]: the pIC50 in test [1] and in test [2] was more than 7.00 in each case.
Consider `CC[C@]1(c2cccc(C(F)(F)F)c2)C2=CN=NC2NC2=C1C(=O)N(c1cnc(OC)nc1)[C@@H](C)C2` (some centres not stated) [US20250313563, Compound 949354], for which the pIC50 is 6.00 to 7.00 in test [1] and 5.30 to 6.00 in test [2].
The matching figures for `CC[C@]1(c2cc(-c3ccnc(C)c3)ccc2F)C2=CN=NC2NC2=C1C(=O)CC(C)(C)C2` (some centres not stated) [US20250313563, Compound 909212]: more than 7.00 and 6.00 to 7.00.
Turning to `CC1(C)CC(=O)C2=C(C1)NC1=C(CN=N1)C21COC2(CN(C(=O)CC3CCCC3)C2)C1` (configuration not stated) [US20250313563, Compound 947293], the pIC50 in test [1] and in test [2] was more than 7.00 each time.
In the case of `C[C@H]1C[C@@]2(CCN1S(=O)(=O)c1ccn(C)n1)C1=C(N=NC1)NC1=C2C(=O)CC(C)(C)C1` [US20250313563, Compound 926832], the figures for the pIC50 in test [1] and in test [2] were more than 7.00 and 6.00 to 7.00, respectively.
For `CC1(C)CC(=O)C2=C(C1)NC1=C(CN=N1)[C@@]21COC2(CN(C(=O)[C@@H]3CC3(F)F)C2)C1` [US20250313563, Compound 948221], the negative logarithm of the IC50 (pIC50) in test [1] and in test [2] was 6.00 to 7.00 in each case.
In the case of `CCC1(c2cccc(-c3cn(C)nc3C)c2)C2=C(CC(C)(C)CC2=O)NC2N=NC(C)=C21` (configuration not stated) [US20250313563, Compound 884003], the pIC50 in test [1] and in test [2] was more than 7.00 in each case.
